Literature values as cited in US20190374622A1, “COMPOSITION AND METHOD FOR CO-ADMINISTRATION WITH A GROWTH PROMOTANT” (OmniGen Research, LLC, priority 2014, published 2019).
Structures can show the parent of a compound that is named as a salt. Where two headings read alike, the source gives them in different places.

Assays:
[1] = finishing swine; cited from earlier work
[2] = cattle, cited from earlier work
[3] = cited from earlier work; for increase in average daily weight gain: last 2 weeks
[4] = cited from earlier work
[5] = 300 mg per head per day, vs cattle that did not receive it

Row | SMILES | better feed efficiency [1] [%] | fat-free lean gain [1] | increase in average daily gain [1] [%] | increase in carcass weights [1] [pounds] | meat quality [1] | increase in hot carcass weight [2, 5] [pounds] | increase in live weight [2, 5] [pounds] | carcass leanness and yield grade [2] | carcass quality, as measured by marbling score and quality grade [2] | increase in average daily weight gain ([3]; hens) [%] | increase in average daily weight gain ([3]; toms) [%] | meat quality, including pH, color and tenderness ([3]; turkeys) | improvement of feed efficiency ([4]; cattle, administered as Zilmax, one study (Intervet/Schering Plough 2010)) [%] | number of Yield Grade 4 and 5 cattle [4] | percentage of Yield Grade 1 cattle [4]
1 | CC(CCc1ccc(O)cc1)NCC(O)c1ccc(O)cc1 (racemic) [Ractopamine hydrochloride, 4-[3-[[2-hydroxy-2-(4-hydroxyphenyl)ethyl]amino]butyl]phenol] | 10 | improve | 10 | 5 | not affecting | 20 | 22 | improves | no effect | 19 | 13 | no effect | – | – | –
2 | CC(C)NC1CCn2c(=O)[nH]c3cccc(c32)C1O (stereo not drawn) [Zilpaterol hydrochloride, 4,5,6,7-tetrahydro-7-hydroxy-6-(isopropylamino)imidazo[4,5,1-jk][1]benzazepin-2(1H)-one] | – | – | – | – | – | – | – | – | – | – | – | – | 3 | cut | increase
